What all share (format): cell-based
Test [1] deals with K. pneumoniae ATCC 700603. Briefly: MIC and MBC determination. Particulars: Klebsiella pneumoniae, ATCC700603. As for the experimental part:
(§1) The antimicrobial activity of the THEDES was also assessed by determining the minimum inhibitory concentration (MIC) and the minimum bactericidal concentration (MBC) of MET, MA and the equimolar THEDES, respectively. Concentrations of 6 mg/mL MET, MA and MET-MA 1:1 were used to determine the MIC and MBC values against gram-positive bacteria E. faecalis, S. epidermidis and S. aureus, and gram-negative bacteria P. aeruginosa, E. coli and K. pneumoniae; results are shown in Table 4.

Another test has as its system P. aeruginosa ATCC 27853. Kind of test: MIC and MBC determination. Particulars: Pseudomonas aeruginosa, ATCC27853. As for the experimental part:
as §1

A further test has as its system S. aureus NCTC 10788. Briefly: MIC and MBC determination. As for the experimental part:
as §1

The subject of a further test is E. faecalis ATCC 29212. Briefly: MIC and MBC determination. Particulars: Enterococcus faecalis, ATCC29212. As for the experimental part:
as §1

The subject of test [2] is S. aureus NCTC 12493 (MRSA). Briefly: MIC and MBC determination. As for the experimental part:
as §1

Another test concerns E. coli NCTC 8196. Kind of test: MIC and MBC determination. Particulars: Escherichia coli, NCTC8196. How it is done:
as §1

Test [3] deals with S. epidermidis ATCC 35984. Kind of test: MIC and MBC determination. The conditions noted are these: Staphylococcus epidermidis, ATCC35984. How it is done: as §1
Another test has as its system S. aureus ATCC 29213. Briefly: MIC and MBC determination. As for the experimental part: as §1
A further test has as its system P. aeruginosa NCTC 10783. Kind of test: MIC and MBC determination. Particulars: Pseudomonas aeruginosa, NCTC10783. As for the experimental part: as §1
Test [4] has as its system Klebsiella pneumoniae ATCC 700603. Briefly: Disc diffusion inhibition zone assay. Particulars: gentamicin sulphate 10 mg/mL, THEDES neat, average n = 9 ± S.D. As for the experimental part: (§2) The disc diffusion assays were carried out against Staphylococcus aureus (FIG. 7, Gram-positive, frequently found in the upper respiratory tract and on the skin) and Klebsiella pneumoniae (FIG. 8, Gram-negative, facultative anaerobic, typically residing in human intestines and faeces). In general, the calculated inhibition zones of gentamicin sulphate (10 mg/mL) and the neat THEDES were very similar, confirming the antimicrobial activity of the THEDES against both gram-positive and gram-negative bacteria (Table 3).
(A growth-free zone around the sample is the usual read-out of agar diffusion tests.)

Test [5] deals with Staphylococcus aureus NCTC 10788. Briefly: Disc diffusion inhibition zone assay. The conditions noted are these: gentamicin sulphate 10 mg/mL, THEDES neat, average n = 9 ± S.D. As for the experimental part: as §2
A further test relates to Pseudomonas aeruginosa. Kind of test: Disc diffusion inhibition zone assay. Particulars: gentamicin sulphate 10 mg/mL, THEDES neat, average n = 9 ± S.D.
The mark [6] stands for this setting: Staphylococcus aureus, NCTC10788, S. aureus NCTC 10788.
Setting [7] is: Staphylococcus aureus, S. aureus NCTC 12493 (MRSA).
Setting [8] is: Staphylococcus aureus, ATCC29213, S. aureus ATCC 29213.

Values after ≈ are worked out from the molar mass of the structure shown. Read-outs that look alike come from different tables or passages of the source.

The MBC is the smallest concentration meeting the test's criterion for killing. A higher MBC goes with less potent killing. One may read the MIC as the smallest concentration in the dilution series that meets the test's criterion for growth inhibition. As to `O=C(O)/C=C\C(=O)O` [MA, maleic acid], the minimal bactericidal concentration (MBC) (in [1]; in the test with P. aeruginosa ATCC 27853; in the test with S. aureus NCTC 10788 (setting [6]); in the test with E. faecalis ATCC 29212; in [2] (setting [7]); in the test with E. coli NCTC 8196) was above 6000 µg/mL throughout. Further, the MBC (in [3]; in the test with S. aureus ATCC 29213 (setting [8]); against P. aeruginosa NCTC 10783) was above 6000 µg/mL each time. For the same compound, the MIC in [1] was above 6000 µg/mL; in the test on P. aeruginosa ATCC 27853 it was 6000 µg/mL (≈ 51.7 mM); in the test with S. aureus NCTC 10788 (Staphylococcus aureus, NCTC10788, S. aureus NCTC 10788, read-out: MIC) it was 6000 µg/mL (≈ 51.7 mM); in the test with E. faecalis ATCC 29212 it was 6000 µg/mL (≈ 51.7 mM); in test [2] (Staphylococcus aureus, S. aureus NCTC 12493 (MRSA), read-out: MIC) it was 6000 µg/mL (≈ 51.7 mM); with E. coli NCTC 8196, 6000 µg/mL (≈ 51.7 mM). Further, the MIC in test [3] was 6000 µg/mL (≈ 51.7 mM); in the test with S. aureus ATCC 29213 (Staphylococcus aureus, ATCC29213, S. aureus ATCC 29213, read-out: MIC) it was 6000 µg/mL (≈ 51.7 mM); against P. aeruginosa NCTC 10783 it was 6000 µg/mL (≈ 51.7 mM).
Regarding gentamicin sulphate, the results for the “ZOI Diameter” value (in test [4]; in test [5]; in the test on Pseudomonas aeruginosa) were 24.13 ± 1.09 mm, 46.09 ± 1.69 mm and 26.04 ± 1.75 mm, respectively.
For the compound `Cc1ncc([N+](=O)[O-])n1CCO` [MET, metronidazole], the MBC was 6000 µg/mL (≈ 35.1 mM) in test [1]; above 6000 µg/mL in the test with P. aeruginosa ATCC 27853; above 6000 µg/mL in the test with S. aureus NCTC 10788 (setting [6]); above 6000 µg/mL in the test on E. faecalis ATCC 29212; above 6000 µg/mL in [2] (setting [7]); above 6000 µg/mL against E. coli NCTC 8196. Further, the minimum bactericidal concentration (MBC) was 3000 µg/mL (≈ 17.5 mM) in [3], above 6000 µg/mL against S. aureus ATCC 29213 (setting [8]) and above 6000 µg/mL in the test on P. aeruginosa NCTC 10783. The minimal inhibitory concentration (MIC) is 6000 µg/mL (≈ 35.1 mM) in test [1]; above 6000 µg/mL against P. aeruginosa ATCC 27853; 6000 µg/mL (≈ 35.1 mM) against S. aureus NCTC 10788 (S. aureus NCTC 10788); 6000 µg/mL (≈ 35.1 mM) in the test with S. aureus NCTC 10788 (Staphylococcus aureus, NCTC10788, non-methicillin-resistant S. aureus strain, read-out: MIC); above 6000 µg/mL with E. faecalis ATCC 29212; above 6000 µg/mL in [2] (S. aureus NCTC 12493 (MRSA)). The minimum inhibitory concentration (MIC) in [2] (Staphylococcus aureus, methicillin-resistant strain of S. aureus (MRSA), read-out: MIC) was above 6000 µg/mL; in the test with E. coli NCTC 8196, above 6000 µg/mL; in test [3], 3000 µg/mL (≈ 17.5 mM); against S. aureus ATCC 29213 (S. aureus ATCC 29213) it was 6000 µg/mL (≈ 35.1 mM); in the test with S. aureus ATCC 29213 (Staphylococcus aureus, ATCC29213, non-methicillin-resistant S. aureus strain, read-out: MIC), 6000 µg/mL (≈ 35.1 mM); in the test with P. aeruginosa NCTC 10783 it was above 6000 µg/mL.

The values above are taken from patent US20240157020A1, “SUTURES” (The Queen's University of Belfast, priority 2021, published 2024).
